Measured values as given in patent publication US20040058851A1, “Specific autoimmune reactions against isomerised/optically inverted epitopes: application for diagnosis of autoimmune diseases” (priority 1999, published 2004).
No end group written: not given here.

Tests used:
[1] = system: immunoaffinity purified RA auto-antibodies; experiment: Immuno-blotting of cellulose-bound spot peptides with immunoaffinity purified RA auto-antibodies (Example 5); assay type: binding, human; conditions: IgM RF eluted from IgG Sepharose, 1 μg/mL
Excerpt: Analysis of IgM auto-antibodies opens up the possibility of removing endogenous IgG from the serum samples prior to analysis for auto-antibodies.
1. IgG is coupled to CNBr activated Sepharose using the manufacturers instructions (Pharmacia, Upsala, Sweden).
2. The IgG Sepharose is packed in a suitable column (i.e. a disposable DG10 column, BioRad laboratories, Richmond, Calif.). The column is washed with at least 10 column volumes PBS and with 10 column volumes 0.1 M sodium acetate, 0.15 M sodium chloride pH 3.5 and finally equilibrated in PBS.
3. Serum from RA patients is diluted 10 times in PBS and loaded on the column. The column is washed with PBS until the absorbency (OD 280 nm) reaches base-line.
4. Bound RF's are eluted with 0.1 M sodium acetate, 0.15 M sodium chloride pH 3.5.
5. IgM is separated from IgG and IgA by gel-filtration on a Sephadex G-200 column in 0.1 M sodium acetate, 0.15 M sodium chloride pH 3.5.
6. Eluted IgM is diluted in PBS-BT to 1 μg/mL and assayed as described below.
Seven amino-acid peptides extending over the Asn-315 residue were synthesised by spot synthesis using Whatman 540 paper (Maidstone, U.K.), using the previously described procedures (Frank, 1992, Kramer et al 1994). The peptides were automatically prepared using a spot synthesis method (Abimed, Langenfeld, F R G). The following peptides were synthesised, covalently attached via the carboxy-terminus: […]

[2] = system: human immunoglobulin in sera from patients with multiple sclerosis; experiment: Homogeneous RIA with 125I BSA-BS3 MBP octapeptide tracer in MS and control sera (Example 6); assay type: binding; conditions: free peptide 10 μg/ml, 25 μl; % inhibition higher in MS sera than control sera (p=0.008); FIG. 9C
Excerpt: For this purpose the MBP derived octapeptide Pro-Ser-Glu-γ-Gly-Lys-Gly-Arg-Gly (γL) was manufactured synthetically using standard FMOC chemistry. The peptide was conjugated to bovine serum albumin […] by Bis-[sulfosuccinimidyl]suberate(BS^3) according to the manufacturers instructions (Pierce) and iodinated with ^125I using the chloramine T protocol as described in Example 4.
Serum from 9 MS-patients and 8 healthy persons are reacted overnight with ^125I—BSA-S^3-Pro-Ser-Glu-y-Gly-Lys-Gly-Arg-Gly followed by precipitation of immune complexes with protein A Sepharose. Serum samples are diluted 1:200 in IMP buffer. The ^125I BSA-BS^3-Pro-Ser-Glu-y-Gly-Lys-Gly-Arg-Gly tracer is diluted in IMP buffer (to an activity of 100000 CPM/25 μl). Seventy-five Al of diluted serum sample is mixed with 25 μl tracer and 25 μl of either IMP buffer or free (unconjugated/unlabelled) Pro-Ser-Glu-y-Gly-Lys-Gly-Arg-Gly peptide (in a concentration of 10 μg/ml in IMP buffer) is added to this mixture. This mixture incubated overnight at 4° C. Protein A Sepharose (PAS) 20 μl/sample vial is weighed out and washed 3 times with 10 ml IMP washing buffer, and transferred to eppendorf 1.5 ml tubes using a repeater pipette. The PAS is sedimented by centrifugation at 2000 RPM 2 min., and the supernatant is aspirated using a suction device (or a pipette). […]

[3] = system: auto-antibodies in RA sera; experiment: ELISA of serum auto-antibodies on MTP coated with Thy-GA peptide conjugate (Example 2); assay type: binding, human; conditions: RA RF+ sera vs RA RF- sera vs control sera; serum diluted one-hundred fold; conjugate coated at 10 μg/ml; FIG. 5
Excerpt: It was investigated whether auto-antibodies would recognise an Asn-315 derived septa-peptide and whether such auto-antibodies are a characteristic feature of rheumatoid arthritis. In order to carry out such investigations the IgG Fc Asn-315 derived (βL) septa-peptide Trp-Leu-Asp-β-Gly-Lys-Glu-Tyr, was manufactured synthetically. The peptide used was a preparation of linear (αL form) Trp-Leu-Asn-Gly-Lys-Glu-Tyr peptide heated to promote isomerisation by the following procedure. The peptide was dissolved in the buffer and heated for 4 hours at 90° C. to promote isomerisation and/or optical inversion. The resulting mix of isomerised (βL) optically inverted (αD and βD) and linear (αL) peptides were analysed by RP-HPLC using a 15-35% acetonitrile gradient in 0.1% TFA over 10 minutes with a flow rate of 1 ml/min, and the isomerisation status of the resulting peaks were studied by amino-acid analysis as described above. This peptide was dissolved at 5 mg/ml in 0.2 M Na-Phosphate pH 9.2. […]
0.5 ml thyroglobulin (30 mg/ml) in 0.1 M Na-phosphate buffer pH 8.0, was added drop-wise (over 2 minutes) and under constant mixing to 0.5 mL of the following solution: 10% GA, 40% H2O, 50% 0.2 M Na-Phosphate pH 8.0. […] The final volume was adjusted to 1500 μL and the protein concentration was determined by a BioRad protein assay performed according to the manufacturers instructions. […]

[4] = system: RA autoantibodies; experiment: Competition ELISA: sera pre-incubated with peptides, then Thy-GA-Trp-Leu-*Asx-Gly-Lys-Glu-Tyr coated plates (Example 3); assay type: binding, human; conditions: 6 RA sera; 50 μl competitor at 50 μg/ml; 17 hours at 4° C.; FIG. 6
Experimental: The binding of RA autoantibodies to the Thy-GA-Trp-Leu-*Asx-Gly-Lys-Glu-Tyr coated plates as described above could be competed out by pre-incubating the sera with Trp-Leu-*Asx-Gly-Lys-Glu-Tyr peptide in solution. The experiment was carried out as follows. Serum samples were diluted one-hundred fold in 10 mM Na-phosphate, 140 mM NaCl, 0.1% tween-20, 1% BSA pH 7.4 (assay buffer). Two-hundred μl was added to 1.5 ml polypropylene tubes followed by addition of 50 μl of the following reagents dissolved in assay buffer at a concentration of 50 μg/ml:
1. Trp-Leu-Asp-β-Gly-Lys-Glu-Tyr. (βL form of the epitope)
2. Trp-Leu-Asn-Gly-Lys-Glu-Tyr (αL form of the epitope)
3. Thy-GA-Trp-Leu-*Asx-Gly-Lys-Glu-Tyr conjugate (prepared as described in example 2).
The tubes were placed at 4° C. for 17 hours, and one-hundred μl of the mixture was added into MTP coated with Thy-GA-Trp-Leu-*Asx-Gly-Lys-Glu-Tyr conjugate. The assay was performed as described above under example 2.

[5] = system: auto-antibodies reactive with isomerised IgG Fc Asn-315 derived peptides; experiment: Homogeneous RIA with 125I Thy-GA-Trp-Leu-*Asx-Gly-Lys-Glu-Tyr tracer, competition with peptides (Example 4); assay type: binding, human; conditions: 25 μl of 100, 1000 or 10,000 ng/ml competitor; peptide significant in the highest concentration; P=0.01 by Student's T-Test; FIG. 8
Experimental: A homogeneous RIA assay was developed for measurement of auto-antibodies with reactivity towards the isomerised form of the epitope Trp-Leu-Asn-Gly-Lys-Glu-Tyr derived from the IgG CH^2 region. The assay was performed by incubating serum samples with ^125I Thy-GA-Trp-Leu-*Asx-Gly-Lys-Glu-Tyr over-night followed by precipitation of immune-complexes with protein A Sepharose.
Serum samples are diluted 1:200 in IMP buffer (IMP-buffer: 10 mM Na-Phosphate, pH 7.4, 140 mM NaCl, 5 mM EDTA, 0.5% Triton X-100, 0.1% BSA, 10 μg/ml soy-bean trypsin inhibitor). A Thy-GA-Trp-Leu-*Asx-Gly-Lys-Glu-Tyr conjugate is prepared as described in example 2 and iodinated with ^125I using the chloramine T protocol: 100 μg of the conjugate is diluted in 0.25 M Na2HPO4 to a total volume of 140 μl. 1.5 mCi Na^125I is added followed by 10 μL Chloramin-T (1 mg/ml, prepared freshly). The solution is vortexed for 30 seconds and 150 μL methionine (1 mg/ml) is added and immediately vortexed for 120 sec. The tracer is purified on size exclusion column (type: BIOSEP SEC S-2000, size: 300×7.80 mm) equilibrated with PBS containing 1% BSA Flow rate 1.0 ml/min. 500 μl fractions are collected and analysed in a scintillation counter (γ-counter). The fractions containing the tracer are pooled and used in the homogeneous RIA assay format. […]

Substance	reactivity of purified RA auto-antibodies towards cellulose-bound peptide [1]	competition of the binding of RA autoantibodies to Thy-GA-Trp-Leu-*Asx-Gly-Lys-Glu-Tyr coated plates [4]	further results
His-Gln-Asp-Trp-Leu-Asp-β-Gly [peptide IV]	strong reactivity	–	–
Pro-Ser-Glu-γ-Gly-Lys-Gly-Arg-Gly	–	–	inhibition of binding of the 125I conjugate to human immunoglobulin by free peptide [2]: specifically inhibited
Trp-Leu-*Asx-Gly-Lys-Glu-Tyr (WLNGKEY; not fully specified (residue 3); printed as Trp-Leu-*Asx-Gly-Lys-Glu-Tyr; also: position 3 Asx: mixture of αD Asn/Asp, βD and βL Asp after heat isomerisation) [linear Trp-Leu-Asn-Gly-Lys-Glu-Tyr heated 4 hours at 90° C; in b143 coated as Thy-GA conjugate]	–	competed out	auto-antibody reactivity (ELISA signal, absorbency at 450 nm) compared between patient groups [3]: elevated auto-antibody reactivity
Trp-Leu-Asp-β-Gly-Lys-Glu-Tyr	–	able to compete out the binding	reactivity in RIA competition (percent inhibition in the presence of competing peptide), group basis [5]: significant reactivity
Trp-Leu-Asp-β-Gly-lys-Glu-Tyr [VII]	strong reactivity	–	–
